Each compound was assayed on A431 cells (assay: Assay for total NADH and NAD+ measurements in cells). Details: percent of NAD level of untreated control cells (100 = no change).
Type: cell-based
Parameters: C: change in NAD levels in response to test compound, shown as % of NAD activity in the absence of test compound: concentration or dose not given beside the values
Description: 2,000 cells/well and, at the same time, test compounds dissolved in media at the desired concentration were added to each well. The treated cells were incubated overnight in C02 incubator. The cells were washed 6 times with PBS with 1 mM CaCl2) and 1 mM MgCl2. In the last wash, 10 μL of PBS with 1 mM CaCl2) and 1 mM MgCl2 per well were left in each well. Immediately thereafter, 10 μL 0.4% dodecyltrimethylammonium bromide (DTAB) in phosphate buffer pH 8.0 as added, and the plates were shaked at 1000 rpm for 5 minutes. 60 μL reaction mix was added, and fluorescence at Ex/Em 530/585 was immediately monitored. A linear increase should be achieved with 8 cycles every 92 seconds, 10 number of flashes/well/cycle. The reaction mix was prepared per the following table, respecting the amount and order in which each component was added:
All assays were performed in A431 cells. Referring to the tables below, activity: “+” ≥25 μM, “++” ≥1 μM and <25 μM, and “+++”<1 μM.
In each table header, A: NAMPT enzyme inhibitory activity, IC50 (μM); B: Cellular NAD inhibitory activity, IC50 (μM); and C: change in NAD levels in response to test compound, shown as % of NAD activity in the absence of test compound. […] A percentage of 100 percent would indicate no increase or decrease in NAD levels as compared to that measured for untreated control cells, while a percentage of 50 percent would indicate a decrease in NAD levels of 50 percent as compared to that measured for untreated control cells.

Row | SMILES | C: change in NAD levels in response to test compound, shown as % of NAD activity in the absence of test compound
1 | Cn1cnnc1-c1ccc2nc(-c3ccc(F)cc3)c(-c3ccc(F)cc3)nc2c1 [BC19101] | 53%
2 | CN1CCN(C(=O)c2ccc3nc(C(F)(F)F)c(-c4ccc(F)cc4)nc3c2)CC1 [BC19103] | 92%
3 | Cn1nnnc1-c1ccc2nc(C(F)(F)F)c(-c3ccc(F)cc3)nc2c1 [BC19112] | 86%
4 | C#CCNC(=O)c1ccc2nc(-c3cccs3)c(-c3ccc(F)cc3)nc2c1 [BC19120] | 84%
5 | Cn1nnnc1-c1ccc2nc(-c3ccc(F)cc3)c(-c3ccc(F)cc3)nc2c1 [BC19139] | 29%
6 | Cc1cnc(-c2ccc3nc(-c4ccc(F)cc4)c(-c4ccc(F)cc4)nc3c2)o1 [BC19140] | 90%
7 | Cc1nnc(-c2ccc3nc(-c4ccc(F)cc4)c(-c4ccc(F)cc4)nc3c2)o1 [BC19141] | 62%
8 | CN1CCN(C(=O)c2ccc3nc(C(F)(F)F)c(-c4cccc(F)c4)nc3c2)CC1 [BC19142] | 94%
9 | Fc1ccc(-c2nc3ccc(-c4nnc[nH]4)cc3nc2-c2ccc(F)cc2)cc1 [BC19143] | 80%
10 | Cn1cc(-c2ccc3nc(-c4ccc(F)cc4)c(-c4ccc(F)cc4)nc3c2)nn1 [BC19148] | 80%
11 | Fc1ccc(-c2nc3ccc(-c4c[nH]nn4)cc3nc2-c2ccc(F)cc2)cc1 [BC19150] | 89%
12 | Cn1nnnc1-c1ccc2nc(-c3ccc(F)cc3)c(C(F)(F)F)nc2c1 [BC19152] | 93%
13 | C#CCNC(=O)c1ccc2nc(-c3ccc(F)cc3)c(-c3ccc(F)cc3)nc2c1 [BC19154] | 73%
14 | Fc1ccc(-c2nc3ccc(-c4nnc[nH]4)cc3nc2C(F)(F)F)cc1 [BC19159] | 92%
15 | CN1CCN(C(=O)c2ccc3nc(-c4ccc(F)cc4)c(-c4cccs4)nc3c2)CC1 [BC19185] | 94%
16 | N#Cc1ccc2nc(-c3ccc(F)cc3)c(-c3ccc(F)cc3)nc2c1 [BC19192] | 76%
17 | N=C(NO)c1ccc2nc(-c3ccc(F)cc3)c(-c3ccc(F)cc3)nc2c1 [BC19194] | 45%
18 | CC(C)OC(=O)Nc1ccc2nc(-c3ccc(F)cc3)c(-c3ccc(F)cc3)nc2c1 [BC19195] | 90%
19 | O=C(NCCN1CCOCC1)c1ccc2nc(-c3ccc(F)cc3)c(-c3ccc(F)cc3)nc2c1 [BC19237] | 24%
20 | Fc1ccc(-c2nc3ccc(-c4nnnn4CCN4CCOCC4)cc3nc2-c2ccc(F)cc2)cc1 [BC19238] | 68%
21 | O=C(Nc1ccc2nc(-c3ccc(F)cc3)c(-c3ccc(F)cc3)nc2c1)OCC(F)(F)F [BC19239] | 66%
22 | Fc1ccc(-c2nc3ccc(-c4cn(CCN5CCOCC5)nn4)cc3nc2-c2ccc(F)cc2)cc1 [BC19240] | 27%
23 | Cc1nc(C)c(-c2ccc3nc(-c4ccc(F)cc4)c(-c4ccc(F)cc4)nc3c2)s1 [BC19241] | 79%
24 | Fc1ccc(-c2nc3ccc(-c4cccnc4)cc3nc2-c2ccc(F)cc2)cc1 [BC19242] | 72%
25 | CS(=O)(=O)c1cncc(-c2ccc3nc(-c4ccc(F)cc4)c(-c4ccc(F)cc4)nc3c2)c1 [BC19243] | 64%
26 | CN1CCOc2cc(-c3ccc4nc(-c5ccc(F)cc5)c(-c5ccc(F)cc5)nc4c3)ccc21 [BC19244] | 86%
27 | Fc1ccc(-c2nc3ccc(-c4ccncc4)cc3nc2-c2ccc(F)cc2)cc1 [BC19245] | 67%

Row | SMILES | C: change in NAD levels in response to test compound, shown as % of NAD activity in the absence of test compound
28 | CCc1nnc(-c2ccc3nc(-c4ccc(F)cc4)c(-c4ccc(F)cc4)nc3c2)o1 [BC19246] | 58%
29 | CCCc1nnc(-c2ccc3nc(-c4ccc(F)cc4)c(-c4ccc(F)cc4)nc3c2)[nH]1 [BC19247] | 94%
30 | Fc1ccc(-c2nc3ccc(-c4nnco4)cc3nc2-c2ccc(F)cc2)cc1 [BC19250] | 13%
31 | O=C(Nc1ccc2nc(-c3ccc(F)cc3)c(-c3ccc(F)cc3)nc2c1)C1CCNCC1 [BC19251] | 0%
32 | Cc1nnc(-c2ccc3nc(-c4ccc(F)cc4)c(-c4ccc(F)cc4)nc3c2)n1C [BC19301] | 57%
33 | Cn1cc(-c2ccc3nc(-c4ccc(F)cc4)c(-c4ccc(F)cc4)nc3c2)cn1 [BC19302] | 58%
34 | Cc1ccncc1-c1ccc2nc(-c3ccc(F)cc3)c(-c3ccc(F)cc3)nc2c1 [BC19304] | 69%
35 | Cn1ncc2c(-c3ccc4nc(-c5ccc(F)cc5)c(-c5ccc(F)cc5)nc4c3)cccc21 [BC19305] | 93%
36 | Fc1ccc(-c2nc3ccc(-c4nncn4CCN4CCOCC4)cc3nc2-c2ccc(F)cc2)cc1 [BC19306] | 76%
37 | Cc1ccc(S(=O)(=O)c2nc3cc(C(=O)N4CCN(C)CC4)ccc3nc2-c2ccc(F)cc2)cc1F [BC19307] | 31%
38 | Cc1ccc(S(=O)(=O)c2nc3cc(C(=O)N4CCN(C)CC4)ccc3nc2-c2ccc(F)cc2)cc1 [BC19308] | 48%
39 | CN1CCC(C(=O)Nc2ccc3nc(-c4ccc(F)cc4)c(-c4ccc(F)cc4)nc3c2)CC1 [BC19309] | 18%
40 | CC(=O)N1CCC(C(=O)Nc2ccc3nc(-c4ccc(F)cc4)c(-c4ccc(F)cc4)nc3c2)CC1 [BC19310] | 52%
41 | CNC(=O)N1CCC(C(=O)Nc2ccc3nc(-c4ccc(F)cc4)c(-c4ccc(F)cc4)nc3c2)CC1 [BC19311] | 63%
42 | CS(=O)(=O)N1CCC(C(=O)Nc2ccc3nc(-c4ccc(F)cc4)c(-c4ccc(F)cc4)nc3c2)CC1 [BC19312] | 54%
43 | C=CC(=O)Nc1ccc2nc(-c3ccc(F)cc3)c(-c3ccc(F)cc3)nc2c1 [BC19313] | 91%
44 | CC#CC(=O)Nc1ccc2nc(-c3ccc(F)cc3)c(-c3ccc(F)cc3)nc2c1 [BC19314] | 33%
45 | C[C@H](Cl)C(=O)Nc1ccc2nc(-c3ccc(F)cc3)c(-c3ccc(F)cc3)nc2c1 [BC19315] | 89%
46 | CN1CCN(C(=O)c2ccc3nc(-c4ccc(F)cc4)c(-c4ccc(Cl)cc4)nc3c2)CC1 [BC19317] | 42%
47 | CN1CCN(C(=O)c2ccc3nc(-c4ccc(F)cc4)c(-c4ccc(F)cc4F)nc3c2)CC1 [BC19318] | 67%
48 | CCc1ccc(-c2nc3cc(C(=O)N4CCN(C)CC4)ccc3nc2-c2ccc(F)cc2)cc1 [BC19319] | 95%
49 | C#CCNC(=O)c1cccc2nc(-c3ccc(F)cc3)c(-c3ccc(F)cc3)nc12 [BC19321] | 72%
50 | CN1CCN(C(=O)c2ccc3nc(-c4ccc(F)cc4)c(S(=O)(=O)c4cccc(F)c4)nc3c2)CC1 [BC19395] | 71%
51 | OCCn1cc(-c2ccc3nc(-c4ccc(F)cc4)c(-c4ccc(F)cc4)nc3c2)nn1 [BC19396] | 60%
52 | C#CC(=O)Nc1ccc2nc(-c3ccc(F)cc3)c(-c3ccc(F)cc3)nc2c1 [BC19397] | 65%
53 | CN1CCN(C(=O)c2ccc3nc(-c4ccc(F)cc4)c(-c4ccc(Cl)cc4Cl)nc3c2)CC1 [BC19398] | 94%

Source: US20230321086A1, “METHODS AND MATERIALS FOR INHIBITING NICOTINAMIDE PHOSPHORIBOSYLTRANSFERASE ACTIVITY” (Universiy of Pittsburgh - Of the Commonwealth System of …, priority 2020, published 2023)
